Reference: patent publication US12503471B2, “Triazatricycle compounds for the treatment of autoimmune disease” (Hoffmann-La Roche Inc., priority 2019, dated 2025)

Assay: Human microsomal stability assay
Type: in vitro ADME
Conditions: human liver microsomes, 1 μM test compound, 0.5 mg/mL protein, 37° C., pH 7.4
Method: Human Microsomal Stability Assay
Human liver microsomes (Cat.NO.: 452117, Corning, USA) were preincubated with test compound for 10 minutes at 37° C. in 100 mM potassium phosphate buffer, pH 7.4. The reactions were initiated by adding NADPH regenerating system. The final incubation mixtures contained 1 μM test compound, 0.5 mg/mL liver microsomal protein, 1 mM MgCl2, 1 mM NADP, 1 unit/mL isocitric dehydrogenase and 6 mM isocitric acid in 100 mM potassium phosphate buffer, pH 7.4. After incubation times of 0, 3, 6, 9, 15 and 30 minutes at 37° C., 300 μL of cold ACN (including internal standard) was added to 100 μL incubation mixture to terminate the reaction. Following precipitation and centrifugation, 100 uL supernatant will be taken out and added 300 uL water. The amount of compound remaining in the samples was determined by LC-MS/MS. Controls of no NADPH regenerating system at zero and 30 minutes were also prepared and analyzed. The results were categorized as: low (7.0 mL/min/kg), medium (7.0-16.2 mL/min/kg) and high (16.2-23.2 mL/min/kg).

## N#Cc1ccc(N2CCN3Cc4cc(N5CCNCC5)ncc4C3C2)c2cccnc12 (centres unmarked) [Example 1, 5-(11-Piperazin-1-yl-4,7,12-triazatricyclo[7.4.0.02,7]trideca-1(9),10,12-trien-4-yl)quinoline-8-carbonitrile]
  CL (h): 6.2 mL/min/kg

## CC1(N)CCN(c2ccc3c(n2)CN2CCN(c4ccc(C#N)c5ncccc45)C[C@H]32)CC1 [Example 4B, 5-[(2S)-11-(4-amino-4-methyl-1-piperidyl)-4,7,10-triazatricyclo[7.4.0.02,7]trideca-1(9),10,12-trien-4-yl]quinoline-8-carbonitrile]
  CL (h): 8.1 mL/min/kg
